Laboratory results as given in patent US20230329906A1, “INTRAOCULAR DELIVERY OF BIOACTIVE MOLECULES USING IONTOPHORESIS” (KEMIN INDUSTRIES, INC., priority 2014, published 2023).

Columns and labels:
[1] = Lutein distribution in human cadaveric eyes after corneo-scleral iontophoresis, two-photon microscopy; format: in vitro ADME; details: 2.5 mA for 5 min cornea/sclera, 80 min rest
Method: (§1) A typical iontophoretic setting is made of two components: ocular applicator and a return electrode both connected to a generator. In this experiment, the ocular applicator comprised 2 electrodes to address independently corneal and scleral tissues. The ocular applicator (OPIA Technologies SAS, Paris, France) is made of polyurethane resin and comprises 2 reservoirs: central circular reservoir (diameter 8 mm, height 4.5 mm, volume 1 ml) and a stainless steel electrode, applied on the cornea surrounded by an annular reservoir (inner diameter 12.5 mm, outer diameter 18 mm height 4.5 mm, volume 1 ml) and a stainless steel electrode, applied on the sclera (pars plana region around the limbus). Each stainless steel electrode connected with a lead to a different constant current generator (anode —positive electrode). The return electrodes were assigned to each generator and respectively attached to the optic nerve (for the corneal electrode) and the equator region of the sclera (for scleral electrode), closing each electrical circuit independently.
Cadaveric eyes. Six human cadaveric eye globes, from different healthy donors, were obtained from the Veneto Eye Bank Foundation (Venezia Zelarino, Italy). […]
(§2) Preparation of the eyes. […] After pre-conditioning, the central corneal thickness (CCT) was measured, using an ultrasound corneal pachymeter (Pachmate, DGH, Exton, USA). […]

[2] = Resonance Raman spectroscopy of ocular tissues of human cadaveric eyes after iontophoresis; format: in vitro ADME
Method: as §1
Cadaveric eyes. Six human cadaveric eye globes, from different healthy donors, were obtained from the Veneto Eye Bank Foundation (Venezia Zelarino, Italy). The human eyes were used in compliance with the guidelines of the Declaration of Helsinki for research involving the use of human tissue and were explanted between 3 and 16 hours after death and immediately preserved at 4° C. in corneal storage medium enriched with 6% dextran. The mean donor age was 63.6±5.9 years. The mean endothelial cell density was 2125±389 cells/mm^2. Each eye globe, submerged in dextran enriched solution, was shipped to the laboratory within 5 days. Four eye globes underwent corneo-scleral iontophoresis to deliver 0.1% lutein ophthalmic solution into the retinal tissue. Two eye globes were used as control: iontophoresis was performed without presence of the formulation.
as §2

Question: Which “Lutein distribution within the retina, outer versus inner part” value [1] does the source give for `CC1=C[C@H](O)CC(C)(C)[C@H]1/C=C/C(C)=C/C=C/C(C)=C/C=C/C=C(C)/C=C/C=C(C)/C=C/C1=C(C)C[C@@H](O)CC1(C)C` [lutein] here?
Answer: The value was “more lutein in the outer part close to the photoreceptors than in the ganglion cells”.

Question: And the “Lutein in the retina” value [1]?
Answer: Its value is “abundant in the retina”.

Question: What about the “Raman peak at 1530 cm−1, treated eye versus control eye” value ([2]; inner sclera) of the same compound?
Answer: The value was 7 times.

Question: And the “Raman peak at 1530 cm−1, treated eye versus controls” value ([2]; macula)?
Answer: The value was 1.3 times.

Question: And the “Raman peak at 1530 cm−1, treated eye versus control eye” value ([2]; retinal mid-periphery)?
Answer: The value was 1.7 times.
